According to patent US20250287944A1, “AMINOETHOXYVINYLGLYCINE AND 1-AMINO-1-CYCLOPROPANECARBOXYLIC ACID AND USES THEREOF” (Valent BioSciences LLC, priority 2024, published 2025):

Columns and labels:
Type in all cases: in vivo
[1] = system: apples, Cripps Pink variety; experiment: Apple greasiness in Cripps Pink variety; conditions: 12 weeks of cold storage and 7 days at room temperature
Method: (§1) 10 sets of unripened apples, Cripps Pink variety, harvested three weeks before the normal harvest date, were each foliar sprayed with either 1) 0.05% Regulaid® as a control, 2) 125 ppm ACC, 3) 250 ppm ACC, 4) 500 ppm ACC, 5) 125 ppm AVG, 6) 125 ppm ACC and 125 ppm AVG, 7) 250 ppm ACC and 125 ppm AVG or 8) 500 ppm ACC and 125 ppm AVG. Following 12 weeks of cold storage and 7 days at room temperature greasiness was measured.

[2] = system: apple trees with mature apples of the Cripps Pink variety; experiment: Fruit drop in Cripps Pink variety
Source text: AVG and/or ACC were applied to apple trees with mature apples of the Cripps Pink variety, wherein each set of trees were foliar sprayed with either 1) 0.05% Regulaid® as a control, 2) 125 ppm ACC, 3) 250 ppm ACC, 4) 500 ppm ACC, 5) 125 ppm AVG, 6) 125 ppm ACC and 125 ppm AVG, 7) 250 ppm ACC and 125 ppm AVG or 8) 500 ppm ACC and 125 ppm AVG.

[3] = system: apples, Cripps Pink variety; experiment: Apple characteristics in Cripps Pink variety (red pixel area, ground color, firmness, starch conversion, brix); design: Ground Color / Starch: scale not given here; Firmness: unit not given here; conditions: 34 hours post spray; for Average % Red Pixel Area: shaded; for Starch: starch conversion
Method: as §1, with “34 hours post spray application percent red pixel area (shaded), ground color, fruit firmness, starch conversion” for “Following 12 weeks of cold storage”, “brix were” for “7 days at room temperature greasiness was”

[4] = system: apples, Cripps Pink variety; experiment: Apple coloration in Cripps Pink variety (blush classes); conditions: 34 hours post spray; for % Cripps Red: apples with a blush from 20% to 40%; for % Pink Lady: apples with a blush of greater than 40%; for % Class 3: apples with a blush of less than 20%
Method: 10 sets of unripened apples, Cripps Pink variety, harvested three weeks before the normal harvest date, were each foliar sprayed with either 1) 0.05% Regulaid® as a control, 2) 125 ppm ACC, 3) 250 ppm ACC, 4) 500 ppm ACC, 5) 125 ppm AVG, 6) 125 ppm ACC and 125 ppm AVG, 7) 250 ppm ACC and 125 ppm AVG or 8) 500 ppm ACC and 125 ppm AVG. 34 hours post spray application percent red pixel area (shaded) was measured. Pink Lady denotes apples with a blush of greater than 40%, Cripps Red denotes apples with a blush from 20% to 40% and Class 3 denotes apples with a blush of less than 20%.

[5] = harvest 1, 125 ppm foliar spray
[6] = harvest 1, 250 ppm foliar spray
[7] = harvest 1, 500 ppm foliar spray
[8] = harvest 2, 125 ppm foliar spray
[9] = harvest 2, 250 ppm foliar spray
[10] = harvest 2, 500 ppm foliar spray

`NC1(C(=O)O)CC1` [ACC, 1-amino-1-cyclopropanecarboxylic acid] was tested, and the “Percent Fruit with Moderate Greasiness” value [1, 5] was 40%, the “Percent Fruit with No Greasiness” value [1, 5] was 21% and the “Percent Fruit with Severe Greasiness” value [1, 5] was 17%. The “Percent Fruit with Slight Greasiness” value [1, 5] was 22%, the “Percent Fruit with Moderate Greasiness” value [1, 6] was 40% and the “Percent Fruit with No Greasiness” value [1, 6] was 5%. The “Percent Fruit with Severe Greasiness” value [1, 6] was 39%, the “Percent Fruit with Slight Greasiness” value [1, 6] was 16% and the “Percent Fruit with Moderate Greasiness” value [1, 7] was 44%. For the same compound, the “Percent Fruit with No Greasiness” value [1, 7] was 1%, the “Percent Fruit with Severe Greasiness” value [1, 7] was 48% and the “Percent Fruit with Slight Greasiness” value [1, 7] was 7%. The “Percent Fruit with Moderate Greasiness” value [1, 8] was 31.1%, the “Percent Fruit with No Greasiness” value [1, 8] was 0% and the “Percent Fruit with Severe Greasiness” value [1, 8] was 68.9%. The “Percent Fruit with Slight Greasiness” value [1, 8] was 0%, the “Percent Fruit with Moderate Greasiness” value [1, 9] was 15% and the “Percent Fruit with No Greasiness” value [1, 9] was 0%. For the same compound, the “Percent Fruit with Severe Greasiness” value [1, 9] was 85%, the “Percent Fruit with Slight Greasiness” value [1, 9] was 0% and the “Percent Fruit with Moderate Greasiness” value [1, 10] was 19%. The “Percent Fruit with No Greasiness” value [1, 10] was 0%, the “Percent Fruit with Severe Greasiness” value [1, 10] was 81% and the “Percent Fruit with Slight Greasiness” value [1, 10] was 0%. The “# of Fruit Dropped (Evaluation 1)” value ([2]; 125 ppm foliar spray to trees) was 11.3 c, the “# of Fruit Dropped (Evaluation 2)” value ([2]; 125 ppm foliar spray to trees) was 10.4 bc and the “Total # of Fruit Dropped” value ([2]; 125 ppm foliar spray to trees) was 26.3 c. For the same compound, the “# of Fruit Dropped (Evaluation 1)” value ([2]; 250 ppm foliar spray to trees) was 15.2 c, the “# of Fruit Dropped (Evaluation 2)” value ([2]; 250 ppm foliar spray to trees) was 16.4 b and the “Total # of Fruit Dropped” value ([2]; 250 ppm foliar spray to trees) was 35.2 bc. For the same compound, the “# of Fruit Dropped (Evaluation 1)” value ([2]; 500 ppm foliar spray to trees) was 59.7 a, the “# of Fruit Dropped (Evaluation 2)” value ([2]; 500 ppm foliar spray to trees) was 40.1 a and the “Total # of Fruit Dropped” value ([2]; 500 ppm foliar spray to trees) was 105.8 a. The Brix ([3]; 125 ppm foliar spray) was 12.25, the Firmness ([3]; 125 ppm foliar spray) was 8.61 and the “Ground Color” value ([3]; 125 ppm foliar spray) was 3.01. The “Average % Red Pixel Area” value ([3]; 125 ppm foliar spray) was 6.9%, the Brix ([3]; 250 ppm foliar spray) was 12.5 and the Firmness ([3]; 250 ppm foliar spray) was 8.58. The “Ground Color” value ([3]; 250 ppm foliar spray) was 2.96, the “Average % Red Pixel Area” value ([3]; 250 ppm foliar spray) was 8% and the Brix ([3]; 500 ppm foliar spray) was 12.51. The Firmness ([3]; 500 ppm foliar spray) was 8.4, the “Ground Color” value ([3]; 500 ppm foliar spray) was 3.04 and the “Average % Red Pixel Area” value ([3]; 500 ppm foliar spray) was 8.7%. For the same compound, the Starch ([3]; 125 ppm foliar spray) was 40, the Starch ([3]; 250 ppm foliar spray) was 45.3 and the Starch ([3]; 500 ppm foliar spray) was 56.2. The “% Cripps Red” value ([4]; 125 ppm foliar spray) was 15%, the “% Cripps Red” value ([4]; 250 ppm foliar spray) was 11.5% and the “% Cripps Red” value ([4]; 500 ppm foliar spray) was 9%. The “% Pink Lady” value ([4]; 125 ppm foliar spray) was 76.5%, the “% Pink Lady” value ([4]; 250 ppm foliar spray) was 84.5% and the “% Pink Lady” value ([4]; 500 ppm foliar spray) was 89%. The “% Class 3” value ([4]; 125 ppm foliar spray) was 8.5%, the “% Class 3” value ([4]; 250 ppm foliar spray) was 4% and the “% Class 3” value ([4]; 500 ppm foliar spray) was 2%.
In the case of `NCCO/C=C/[C@H](N)C(=O)O` [AVG, ([S]-trans-2-amino-4-(2-aminoethoxy)-3-butenoic acid], the “Percent Fruit with Moderate Greasiness” value [1, 5] is reported as 1%, the “Percent Fruit with No Greasiness” value [1, 5] is reported as 94% and the “Percent Fruit with Severe Greasiness” value [1, 5] is reported as 0%. For the same compound, the “Percent Fruit with Slight Greasiness” value [1, 5] was 5%, the “Percent Fruit with Moderate Greasiness” value [1, 8] was 49% and the “Percent Fruit with No Greasiness” value [1, 8] was 22%. The “Percent Fruit with Severe Greasiness” value [1, 8] was 2%, the “Percent Fruit with Slight Greasiness” value [1, 8] was 27% and the “# of Fruit Dropped (Evaluation 1)” value ([2]; 125 ppm foliar spray to trees) was 9.7 c. For the same compound, the “# of Fruit Dropped (Evaluation 2)” value ([2]; 125 ppm foliar spray to trees) was 7.4 c, the “Total # of Fruit Dropped” value ([2]; 125 ppm foliar spray to trees) was 20.8 c and the Brix ([3]; 125 ppm foliar spray) was 12.33. The Firmness ([3]; 125 ppm foliar spray) was 8.62, the “Ground Color” value ([3]; 125 ppm foliar spray) was 2.93 and the “Average % Red Pixel Area” value ([3]; 125 ppm foliar spray) was 6.3%. The Starch ([3]; 125 ppm foliar spray) was 25.9, the “% Cripps Red” value ([4]; 125 ppm foliar spray) was 21.5% and the “% Pink Lady” value ([4]; 125 ppm foliar spray) was 69.5%. The “% Class 3” value ([4]; 125 ppm foliar spray) was 9%.
